Laboratory results reported in patent US9193704B2, “Hydantoin derivatives as KV3 inhibitors” (AUTIFONY THERAPEUTICS LIMITED, priority 2011, dated 2015).

Experiments:
[1] = test system: p-glycoprotein; test: In vivo pharmacokinetic assay with the PgP transport inhibitor Elacridar; settings: rat; Elacridar 3 mg/kg intravenous shortly before oral 1 mg/kg; 0.5 h; indicates absence of notable p-glycoprotein interactions
Method: Adult male rats (Charles River, Italy) were dosed with test compound orally at 1 mg/kg (5 ml/kg, in 5% v/v DMSO, 0.5% w/v HPMC in water) and intravenously at 0.5 mg/kg (2 ml/kg, in 5% v/v DMSO 40% w/v PEG400 in saline). After oral administration, blood samples were collected under deep Isofluorane anesthesia from the portal vein and heart of each rat (1 rat per time point). After intravenous administration, serial blood samples were collected from the lateral tail vein of each rat. A further group of rats (n=1 per test compound) received a single intravenous administration of the PgP transport inhibitor, Elacridar (3 mg/kg) shortly before the oral administration of the test compound at 1 mg/kg, as above. Blood and brain samples were collected at a single timepoint of 0.5 h after dose administration for these animals. In all cases, blood samples were collected into potassium EDTA tubes.
Blood and brain samples were assayed for test compound concentration using a method based on protein precipitation with acetonitrile followed by HPLC/MS-MS analysis with an optimized analytical method.
The concentrations of test compound in blood (expressed as ng/ml) and brain (expressed as ng/g) at the different time points following either oral or intravenous dosing were analysed using a non-compartmental pharmacokinetic model using WinNonLin Professional version 4.1. The following parameters were derived:
Oral dosing: Cmax, time of maximum concentration (Tmax), AUC, bioavailability (F %), fraction absorbed (Fa %), blood to brain ratio (AUC BB), and Fold-change in AUC BB in the presence of Elacridar.

[2] = test system: amphetamine induced hyperlocomotion; test: Mouse model of amphetamine induced hyperlocomotion; assay type: in vivo; settings: 60 mg/kg, 60 minute period following amphetamine administration, P<0.01
Method: Example 33 was tested in the_mouse model of amphetamine induced hyperlocomotion described in Example 93 of WO2011/069951A1.

[3] = target: T1, human Kv3.1 channels (hKv3.1) (Homo sapiens, UniProt P48547); test: IonWorks Quattro electrophysiology, potentiation of hKv3.1 currents; assay type: cell-based; settings: between Kv3.1 and Kv3.2 channels
T1 construct: expressed in transfected cells; host or cells: CHO/Gam/E1A-clone22 (CGE22) cells, CHO-K1-derived, transiently transduced with BacMam pFBM/human Kv3.1
T1 sequence (P48547 1-511): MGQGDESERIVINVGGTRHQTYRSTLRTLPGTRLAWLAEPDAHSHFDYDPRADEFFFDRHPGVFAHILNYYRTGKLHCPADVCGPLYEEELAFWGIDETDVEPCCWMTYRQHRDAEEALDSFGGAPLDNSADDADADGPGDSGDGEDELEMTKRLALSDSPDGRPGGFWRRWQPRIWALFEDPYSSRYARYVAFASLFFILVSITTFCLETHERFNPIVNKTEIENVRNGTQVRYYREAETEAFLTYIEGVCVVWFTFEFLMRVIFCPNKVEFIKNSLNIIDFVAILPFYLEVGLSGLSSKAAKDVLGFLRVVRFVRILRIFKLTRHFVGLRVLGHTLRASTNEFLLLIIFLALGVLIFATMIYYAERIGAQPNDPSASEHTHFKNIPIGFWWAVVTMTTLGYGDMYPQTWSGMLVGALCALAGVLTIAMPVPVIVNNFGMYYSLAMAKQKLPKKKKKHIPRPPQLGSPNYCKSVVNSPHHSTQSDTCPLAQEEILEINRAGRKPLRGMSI

change in AUC BB in the presence of Elacridar [1] | SMILES | increase in locomotor activity induced by amphetamine [2] | difference in pEC50 values between the two channels [3]
limited change | CC1(C)NC(=O)N(c2ccc(Oc3ccc4c(c3)C(C(C)(C)C)OC4)nc2)C1=O (single isomer, unassigned) [Example 50, 3-[6-[(3-tert-butyl-1,3-dihydroisobenzofuran-5-yl)oxy]-3-pyridyl]-5,5-dimethyl-imidazolidine-2,4-dione] | – | –
limited change | CC1(C)NC(=O)N(c2ccc(Oc3ccc4c(c3)C(C)(C(F)(F)F)OC4)nc2)C1=O (single isomer, unassigned) [Example 52, 5,5-dimethyl-3-[6-[[3-methyl-3-(trifluoromethyl)-1H-isobenzofuran-5-yl]oxy]-3-pyridyl]imidazolidine-2,4-dione] | – | –
limited change | CC1(C)NC(=O)N(c2cnc(Oc3ccc4c(c3)C3(CCCC3)OC4)nc2)C1=O [Example 12, 5,5-dimethyl-3-(2-spiro[1H-isobenzofuran-3,1′-cyclopentane]-5-yloxypyrimidin-5-yl)imidazolidine-2,4-dione] | – | –
limited change | CC[C@@]1(C)NC(=O)N(c2ccc(Oc3ccc4c(c3)C(C)(C)OC4)nc2)C1=O [Example 33, (5R)-3-[6-[(3,3-dimethyl-1H-isobenzofuran-5-yl)oxy]-3-pyridyl]-5-ethyl-5-methyl-imidazolidine-2,4-dione] | completely prevented | –
limited change | CC1(C)NC(=O)N(c2ccc(Oc3ccc4c(c3)C3(CCC3)OC4)nc2)C1=O [Example 58, 5,5-dimethyl-3-(6-spiro[1H-isobenzofuran-3,1′-cyclobutane]-5-yloxy-3-pyridyl)imidazolidine-2,4-dione] | – | –
– | CC[C@H]1NC(=O)N(c2ccc(Oc3cccc4c3C3(CC3)CO4)nc2)C1=O [Reference Example 87, (5R)-5-ethyl-3-[6-(spiro[1-benzofuran-3,1′-cyclopropan]-4-yloxy)-3-pyridinyl]-2,4-imidazolidinedione] | – | 0.7 log unit
– | CC1(C)NC(=O)N(c2ccc(Oc3cccc4c3C3(CC3)CO4)nc2)C1=O [Reference Example 88, 5,5-dimethyl-3-[6-(spiro[1-benzofuran-3,1′-cyclopropan]-4-yloxy)-3-pyridinyl]-2,4-imidazolidinedione] | – | 0.7 log unit
